Measurements taken from US7183415B2, “Quinoline compound” (Takeda Pharmaceutical Company Limited, priority 2001, dated 2007).

First: O=C(Nc1cc2ncc(CN3CCCC3)cc2cc1F)c1ccc(-c2ccc(F)cc2)cc1F [Example 60, 3,4′-difluoro-N-[6-fluoro-3-(1-pyrrolidinylmethyl)-7-quinolinyl][1,1′-biphenyl]-4-carboxamide]
Second: Cc1ccc(-c2ccc(C(=O)Nc3cc4ncc(CN5CCCC5)cc4cc3F)c(F)c2)cc1 [Example 61, 3-fluoro-N-[6-fluoro-3-(1-pyrrolidinylmethyl)-7-quinolinyl]-4′-methyl[1,1′-biphenyl]-4-carboxamide]
The melting point of the first is higher: 200 to 202 °C for the first, 179 to 181 °C for the second.

First: O=C(Nc1cc2ncc(CN3CCCC3)cc2cc1F)c1ccc(-c2ccc(Cl)cc2)cc1F [Example 62, 4′-chloro-3-fluoro-N-[6-fluoro-3-(1-pyrrolidinylmethyl)-7-quinolinyl][1,1′-biphenyl]-4-carboxamide]
Second: O=C(Nc1ccc2cc(CN3CCCC3)cnc2c1)c1ccc(-c2ccc(Cl)cc2)cc1F [Example 85, 4′-chloro-3-fluoro-N-[3-(1-pyrrolidinylmethyl)-7-quinolinyl][1,1′-biphenyl]-4-carboxamide]
The melting point of the first is lower: 217 to 219 °C for the first, 232 °C for the second.

First: O=C(Nc1cc2ncc(CN3CCCC3)cc2cc1N1CCCC1)c1ccc(Br)cc1 [Example 63, 4-bromo-N-[6-(1-pyrrolidinyl)-3-(1-pyrrolidinylmethyl)-7-quinolinyl]benzamide]
Second: O=C(Nc1cc2ncc(CN3CCCC3)cc2cc1N1CCCC1)c1ccc(-c2ccc(F)cc2)cc1 [Example 64, 4′-fluoro-N-[6-(1-pyrrolidinyl)-3-(1-pyrrolidinylmethyl)-7-quinolinyl][1,1′-biphenyl]-4-carboxamide]
The melting point of the first is lower: 171 to 173 °C for the first, 182 to 184 °C for the second.

Compared with `COc1ccc(-c2ccc(C(=O)Nc3cc4ncc(CN5CCCC5)cc4cc3Cl)cc2)cc1` [Example 67, N-[6-chloro-3-(1-pyrrolidinylmethyl)-7-quinolinyl]-4′-methoxy-[1,1′-biphenyl]-4-carboxamide], `COc1ccc(-c2ccc(C(=O)Nc3ccc4cc(CN5CCCC5)cnc4c3F)cc2)cc1` [Example 72, N-[8-fluoro-3-(1-pyrrolidinylmethyl)-7-quinolinyl]-4′-methoxy[1,1′-biphenyl]-4-carboxamide] is higher in melting point: 184 °C for the first, 217 to 220 °C for the second.

Going from `O=C(Nc1cc2ncc(CN3CCCC3)cc2cc1Cl)c1ccc(-c2cc3ccccc3o2)cc1` [Example 68, 4-(1-benzofuran-2-yl)-N-[6-chloro-3-(1-pyrrolidinylmethyl)-7-quinolinyl]benzamide] to `O=C(Nc1cc2ncc(CN3CCCC3)cc2cc1Cl)c1ccc(-c2ccc(Cl)s2)cc1` [Example 69, N-[6-chloro-3-(1-pyrrolidinylmethyl)-7-quinolinyl]-4-(5-chlorothien-2-yl)benzamide], the melting point falls from 209 °C to 185 °C.

First: O=C(Nc1ccc2cc(CN3CCCC3)cnc2c1F)c1ccc(-c2ccccc2)cc1 [Example 71, N-[8-fluoro-3-(1-pyrrolidinylmethyl)-7-quinolinyl][1,1′-biphenyl]-4-carboxamide]
Second: O=C(Nc1ccc2cc(CN3CCCC3)cnc2c1F)c1ccc(-c2ccc(F)cc2)cc1 [Example 73, 4′-fluoro-N-[8-fluoro-3-(1-pyrrolidinylmethyl)-7-quinolinyl][1,1′-biphenyl]-4-carboxamide]
The melting point of the first is higher: 186 to 188 °C for the first, 178 °C for the second.

First: Cc1ccc(-c2ccc(C(=O)Nc3ccc4cc(CN5CCCC5)cnc4c3F)cc2)cc1 [Example 74, N-[8-fluoro-3-(1-pyrrolidinylmethyl)-7-quinolinyl]-4′-methyl[1,1′-biphenyl]-4-carboxamide]
Second: O=C(Nc1ccc2cc(CN3CCCC3)cnc2c1F)c1ccc(-c2ccc(Cl)cc2)cc1 [Example 75, 4′-chloro-N-[8-fluoro-3-(1-pyrrolidinylmethyl)-7-quinolinyl][1,1′-biphenyl]-4-carboxamide]
The melting point of the first is higher: 210 to 213 °C for the first, 206 to 208 °C for the second.

First: O=C(Nc1ccc2cc(CN3CCCC3)cnc2c1F)c1ccc(-c2ccccc2)cc1F [Example 77, 3-fluoro-N-[8-fluoro-3-(1-pyrrolidinylmethyl)-7-quinolinyl][1,1′-biphenyl]-4-carboxamide]
Second: COc1ccc(-c2ccc(C(=O)Nc3ccc4cc(CN5CCCC5)cnc4c3F)c(F)c2)cc1 [Example 79, 3-fluoro-N-[8-fluoro-3-(1-pyrrolidinylmethyl)-7-quinolinyl]-4′-methoxy[1,1′-biphenyl]-4-carboxamide]
The melting point of the first is lower: 136 to 137 °C for the first, 182 to 183 °C for the second.

Compared with `COc1c(NC(=O)c2ccc(-c3ccc(F)cc3)cc2)ccc2cc(CN3CCCC3)cnc12` [Example 81, 4′-fluoro-N-[8-methoxy-3-(1-pyrrolidinylmethyl)-7-quinolinyl][1,1′-biphenyl]-4-carboxamide], `CCc1c(NC(=O)c2ccc(-c3ccc(F)cc3)cc2)ccc2cc(CN3CCCC3)cnc12` [Example 83, N-[8-ethyl-3-(1-pyrrolidinylmethyl)-7-quinolinyl]-4′-fluoro[1,1′-biphenyl]-4-carboxamide] is higher in melting point: 142 to 144 °C for the first, 266 to 267 °C for the second.

Going from `O=C(Nc1ccc2cc(CN3CCCC3)cnc2c1)c1ccc(-c2ccc(F)cc2)cc1F` [Example 86] to `COc1ccc(-c2ccc(C(=O)Nc3ccc4cc(CN5CCCC5)cnc4c3)c(F)c2)cc1` [Example 87, 3-fluoro-4′-methoxy-N-[3-(1-pyrrolidinylmethyl)-7-quinolinyl][1,1′-biphenyl]-4-carboxamide], the melting point falls from 177 °C to 174 °C.

Compared with `O=C(Nc1ccc2cc(CN3CCCC3)cnc2c1)c1ccc(-c2ccccc2)cc1F` [Example 88, 3-fluoro-N-[3-(1-pyrrolidinylmethyl)-7-quinolinyl][1,1′-biphenyl]-4-carboxamide], `Cc1c(NC(=O)c2ccc(-c3ccccc3F)cc2)ccc2cc(CN3CCCC3)cnc12` [Example 99, 2′-fluoro-N-[8-methyl-3-(1-pyrrolidinylmethyl)-7-quinolinyl][1,1′-biphenyl]-4-carboxamide] is lower in melting point: 166 °C for the first, 133 to 135 °C for the second.

Compared with `O=C(Nc1ccc2cc(CN3CCC(CCO)CC3)cnc2c1)c1ccc(-c2ccc(Cl)cc2)cc1` [Example 89, 4′-chloro-N-(3-{[4-(2-hydroxyethyl)-1-piperidinyl]methyl}-7-quinolinyl)-[1,1′-biphenyl]-4-carboxamide], `CCNC(=O)CC1CCN(Cc2cnc3cc(NC(=O)c4ccc(-c5ccc(Cl)cc5)cc4)ccc3c2)CC1` [Example 91, 4′-chloro-N-[3-({4-[2-(ethylamino)-2-oxoethyl]-1-piperidinyl}methyl)-7-quinolinyl][1,1′-biphenyl]-4-carboxamide] is higher in melting point: 204 °C for the first, 250 °C for the second.

First: NC(=O)C1CCN(Cc2cnc3cc(NC(=O)c4ccc(-c5ccc(Cl)cc5)cc4)ccc3c2)CC1 [Example 90, 1-[(7-{[(4′-chloro-1,1′-biphenyl-4-yl)carbonyl]amino}-3-quinolinyl)methyl]piperidine-4-carboxamide]
Second: Cc1c(NC(=O)c2ccc(-c3ccc(F)c(F)c3)cc2)ccc2cc(CN3CCCC3)cnc12 [Example 102, 3′,4′-difluoro-N-[8-methyl-3-(1-pyrrolidinylmethyl)-7-quinolinyl][1,1′-biphenyl]-4-carboxamide]
The melting point of the first is higher: 260 °C for the first, 199 to 201 °C for the second.

Compared with `Cc1ccc(-c2ccc(C(=O)Nc3ccc4cc(CN5CCCC5)cnc4c3C)cn2)cc1` [Example 94, 6-(4-methylphenyl)-N-[8-methyl-3-(1-pyrrolidinylmethyl)-7-quinolinyl]nicotinamide], `Cc1c(NC(=O)c2ccc(-c3ccc(Cl)cc3)nc2)ccc2cc(CN3CCCC3)cnc12` [Example 95, 6-(4-chlorophenyl)-N-[8-methyl-3-(1-pyrrolidinylmethyl)-7-quinolinyl]nicotinamide] is higher in melting point: 178 to 180 °C for the first, 234 to 236 °C for the second.

First: COc1ccc(-c2ccc(C(=O)Nc3ccc4cc(CN5CCCC5)cnc4c3C)cn2)cc1 [Example 96, 6-(4-methoxyphenyl)-N-[8-methyl-3-(1-pyrrolidinylmethyl)-7-quinolinyl]nicotinamide]
Second: Cc1c(NC(=O)c2ccc(-c3ccc(F)cc3)nc2)ccc2cc(CN3CCCC3)cnc12 [Example 97, 6-(4-fluorophenyl)-N-[8-methyl-3-(1-pyrrolidinylmethyl)-7-quinolinyl]nicotinamide]
The melting point of the first is lower: 180 to 182 °C for the first, 207 to 209 °C for the second.

Compared with `Cc1c(NC(=O)N2CCC(c3ccc(Cl)cc3)CC2)ccc2cc(CN3CCCC3)cnc12` [Example 98, 4-(4-chlorophenyl)-N-[8-methyl-3-(1-pyrrolidinylmethyl)-7-quinolinyl]-1-piperidine carboxamide], `Cc1c(NC(=O)c2ccc(-c3ccc(Cl)s3)cc2)ccc2cc(CN3CCCC3)cnc12` [Example 107, 4-(5-chloro-2-thienyl)-N-[8-methyl-3-(1-pyrrolidinylmethyl)-7-quinolinyl]benzamide] is higher in melting point: 203 to 205 °C for the first, 210 to 211 °C for the second.

First: Cc1c(NC(=O)c2ccc(-c3ccc(F)cc3F)cc2)ccc2cc(CN3CCCC3)cnc12 [Example 100, 2′,4′-difluoro-N-[8-methyl-3-(1-pyrrolidinylmethyl)-7-quinolinyl][1,1′-biphenyl]-4-carboxamide]
Second: Cc1cccc(-c2ccc(C(=O)Nc3ccc4cc(CN5CCCC5)cnc4c3C)cc2)c1 [Example 109, 3′-methyl-N-[8-methyl-3-(1-pyrrolidinylmethyl)-7-quinolinyl][1,1′-biphenyl]-4-carboxamide]
The melting point of the first is higher: 177 to 179 °C for the first, 151 to 152 °C for the second.

First: Cc1c(NC(=O)c2ccc(-c3ccc(C(F)(F)F)cc3)cc2)ccc2cc(CN3CCCC3)cnc12 [Example 101, N-[8-methyl-3-(1-pyrrolidinylmethyl)-7-quinolinyl]-4′-(trifluoromethyl)[1,1′-biphenyl]-4-carboxamide]
Second: Cc1c(NC(=O)c2ccc(-c3ccc(OC(F)(F)F)cc3)cc2)ccc2cc(CN3CCCC3)cnc12 [Example 103, N-[8-methyl-3-(1-pyrrolidinylmethyl)-7-quinolinyl]-4′-(trifluoromethoxy)[1,1′-biphenyl]-4-carboxamide]
The melting point of the first is higher: 220 to 222 °C for the first, 200 to 202 °C for the second.

`CC(=O)NC1CCN(Cc2cnc3cc(NC(=O)c4ccc(-c5ccc(Cl)cc5)cc4)ccc3c2)C1` (stereo not shown) [Example 92, N-(3-{[3-(acetylamino)-1-pyrrolidinyl]methyl}-7-quinolinyl)-4′-chloro-[1,1′-biphenyl]-4-carboxamide] showed a melting point of over 285 °C.
